Measured values as given in patent US20250001107A1, “BREATH-POWERED NASAL DEVICES FOR TREATMENT OF TRAUMATIC BRAIN INJURY (TBI), INCLUDING CONCUSSION, AND METHODS” (Oragenics, Inc., priority 2021, published 2025).

Tests used:
[1] = system: Animal models of concussion; experiment: animal models of concussion, behavioral pathology; format: in vivo
lipophilicity = format: physicochemical
[2] = preclinical studies of neuroprotective effects; format: in vivo
[3] = blood-brain barrier crossing

With CC(=O)[C@@H]1CCC2C3CCC4=CC(=O)CC[C@H]4C3CC[C@]21C (single isomer, unassigned) [ent-19-norprogesterone, ent-19-norpregn-4-ene-3,20-dione] the “behavioral pathology associated with brain injury symptoms” value [1] was “reduces the behavioral pathology associated with brain injury symptoms such as memory impairment, anxiety, and motor/sensory performance”, the lipophilicity (lipophilicity) was “lipophilic” and the “neuroprotective effects compared to related neurosteroids” value [2] was “equivalent, if not superior, neuroprotective effects compared to related neurosteroids”. The “crossing of the blood-brain barrier” value [3] was “can easily cross the blood-brain barrier”.
